Laboratory results taken from patent US5095011A, “Lyophilized cefepime dihydrochloride for parenteral use” (priority 1990, dated 1992).
Structures can show the parent of a compound that is named as a salt. Blank lines part the entries; values can stand above or below the compound they belong to.

Assays:
[1] = Stability of lyophilized amorphous BMY-28142 salts (dry, sealed vials); type: physicochemical; conditions: for expected shelf life: extrapolated from stability tests; for remaining at 168 h: 1 week; for remaining at 336 h: 2 weeks; for remaining at 672 h: 4 weeks; for remaining at 1008 h: 6 weeks; for remaining at 2184 h: 13 weeks; for remaining at 6888 h: 41 weeks
Description: […] of BMY-28142 Zi was dissolved qs to 33 ml with 1.9 ml of 1N-HCl and water for injection (pH=2.0).
One ml portion (approximately 65 mg/ml) of the solution were placed into 10cc flint vials which were loosely stoppered with split lyphlization stoppers, frozen to -40° C. and lyphilized at a shelf temperature of 0° C. for 24 hours, then at 24° C. for 24 hours and at 32.2° C. for four hours. The vials were then sealed with aluminum closures and tested for stability at 56°, 45° and 37° C.

various organisms = conditions: U.S. Pat. No. 4,406,899; amorphous zwitterionic form; cited from earlier work
[2] = type: physicochemical; conditions: water for injection
Description: 375 mg L(+)-Arginine for injection is reconstituted with 4.45 ml of sterile water for injection. The solution is taken up in a syringe and is added to a vial containing lyophilized BMY-28142-2HCl having an activity of 500 mg activity per vial. This solution produces a reconstituted solution suitable for injection which has an activity of about 100 mg BMY-28142 per milliliter.
Control of the amount of water used for dilution permitted the attainment of high concentrations up to 400 mg BMY-28142 per ml.

[3] = dry lyophilized solid, 45° C., second lot, separately prepared

expected shelf life ([1]; 4° C.): at least 24 months
remaining at 168 h ([1]; dry lyophilized solid, 45° C.): 99.8%
remaining at 168 h [1, 3]: 100%
remaining at 336 h ([1]; dry lyophilized solid, 45° C.): 97.2%
remaining at 336 h ([1]; dry lyophilized solid, 56° C., second lot, separately prepared): 91.8%
remaining at 672 h ([1]; dry lyophilized solid, 37° C.): 98.6%
remaining at 672 h [1, 3]: 92.5%
remaining at 4320 h ([1]; dry lyophilized solid, 6 months, 25° C., second lot, separately prepared): 100%
remaining at 1008 h ([1]; dry lyophilized solid, 37° C., second lot, separately prepared): 97.2%
remaining at 1344 h ([1]; dry lyophilized solid, 8 weeks, 56° C.): 87%
remaining at 2184 h ([1]; dry lyophilized solid, 37° C.): 95.5%
remaining at 2184 h ([1]; dry lyophilized solid, 45° C.): 91.6%
remaining at 4368 h ([1]; dry lyophilized solid, 26 weeks, 45° C.): 87.7%
remaining at 6888 h ([1]; dry lyophilized solid, 25° C.): 98.1%
remaining at 6888 h ([1]; dry lyophilized solid, 37° C.): 91.7%
remaining at 8736 h ([1]; dry lyophilized solid, 52 weeks, 25° C., second lot, separately prepared): 100%
expected shelf life ([1]; room temperature): at least 12 months
Compound: CO/N=C(\C(=O)NC1C(=O)N2C(C(=O)[O-])=C(C[N+]3(C)CCCC3)CSC12)c1csc(N)n1 (stereo not drawn) [Di-HCl, 7-[α-(2-aminothiazol-4-yl)-α-(Z)-methoxyiminoacetamido]-3-[(1-methyl-1-pyrrolidinium)methyl]-3-cephem-4-carboxylate]
stability of lyophile compared with other lyophilized amorphous salts [1]: unexpectedly more stable than the lyophilized, amorphous sesqui-H3 PO4, mono-H2 SO4 and mono-HCl salts

remaining at 168 h ([1]; dry lyophilized solid, 56° C.): 75%
remaining at 1008 h ([1]; dry lyophilized solid, 37° C.): 79%
Compound: CO/N=C(\C(=O)NC1C(=O)N2C(C(=O)[O-])=C(C[N+]3(C)CCCC3)CSC12)c1csc(N)n1 (stereo not shown) [Sesqui-PO4]

Compound: CO/N=C(\C(=O)N[C@@H]1C(=O)N2C(C(=O)[O-])=C(C[N+]3(C)CCCC3)CS[C@H]12)c1csc(N)n1 [BMY-28142, 7-[α-(2-aminothiazol-4-yl)-α-(Z)-methoxyiminocetamido]-3-[(1-methyl-1-pyrrolidinium)methyl]-3-cephem-4-carboxylate]
antibacterial spectrum of activity (various organisms): broader spectrum activity than ceftazidime and cefotaxime
concentration attained on reconstitution [2]: up to 400 mg per ml
